Test results published in patent US5610299A (priority 1995, dated 1997).

target: GABAa receptor; assay: GABAa receptor binding activity ([3H]-RO15-1788 displacement, rat cortical tissue); details: 0.5 nM [3H]-RO15-1788, 30 min at 4° C., nonspecific with 1.0 μM diazepam
Description: The pharmaceutical utility of compounds of this invention are indicated by the following assay for GABAa receptor binding activity.
Assays are carried out as described in Thomas and Tallman (J. Bio. Chem. 156:9838-9842, J. Neurosci. 3:433-440, 1983). Rat conical tissue is dissected and homogenized in 25 volumes (w/v) of 0.05M Tris HCl buffer (pH 7.4 at 4° C.). The tissue homogenate is centrifuged in the cold (4°) at 20,000×g for 20'. The supernatant is decanted and the pellet is rehomogenized in the same volume of buffer and again centrifuged at 20,000×g. The supernatant is decanted and the pellet is frozen at -20° C. overnight. The pellet is then thawed and rehomogenized in 25 volume (original wt/vol) of buffer and the procedure is carried out twice. The pellet is finally resuspended in 50 volumes (w/vol of 0.05M Tris HCl buffer (pH 7.4 at […]).
Incubations contain 100 μl of tissue homogenate, 100 μl of radioligand 0.5 nM (^3 H-RO15 -1788 [^3 H-Flumazenil] specific activity 80 Ci/mmol), drug or blocker and buffer to a total volume of 500 μl. Incubations are carried for 30 min at 4° C. then are rapidly filtered through GFB filters to separate free and bound ligand. Filters are washed twice with fresh 0.05M Tris HCl buffer (pH 7.4 at 4° C.) and counted in a liquid scintillation counter. 1.0 μM diazepam is added to some tubes to determine nonspecific binding. Data are collected in triplicate determinations, averaged and % inhibition of total specific binding is calculated. Total Specific Binding=Total-Nonspecific. In sonic cases, the amounts of unlabeled drugs is varied and total displacement curves of binding are carried out. Data are converted to a form for the calculation of IC50 and Hill Coefficient (nH).

Question: For COc1ccc(F)c(-c2ncc3[nH]c4ccccc4n3c2=O)c1 [Compound 2, 2-(2-Fluoro-5-methoxyphenyl)-benzimidazo[1,2-a]pyrazin-1(5H)-one], which IC50 is on record?
Answer: Its IC50 is 167 nM.

Question: Which IC50 does the source give for O=c1c(-c2ccccc2)ncc2[nH]c3ccccc3n12 [Compound 3, 2-Phenyl-benzimidazo[1,2-a]pyrazin-1(5H)-one] here?
Answer: Its IC50 is 93 nM.

Question: Which IC50 does the source give for COc1ccc(-c2ncc3[nH]c4ccccc4n3c2=O)cc1 [Compound 1, 2-(4-Methoxyphenyl)-benzimidazo[1,2-a]pyrazin-1(5H)-one] here?
Answer: The IC50 was 15 nM.

Question: With COc1cccc(-c2ncc3[nH]c4ccccc4n3c2=O)c1 [Compound 4] as the compound, how does the IC50 read?
Answer: Its IC50 is 61 nM.

test system: GABA binding site / benzodiazepine binding site; assay: not given; details: Tallman et al. 1978; cited from earlier work

Question: Which “block of enhancement of benzodiazepine binding by GABA agonists” value does the source give for CN1CCc2cc3c(cc2C1C1OC(=O)c2c1ccc1c2OCO1)OCO3 (single isomer, unassigned; (-)) [(-) bicuculline] here?
Answer: The value was “much less active”.

Question: For CN1CCc2cc3c(cc2C1C1OC(=O)c2c1ccc1c2OCO1)OCO3 (single isomer, unassigned; (+)) [(+) bicuculline], which “block of enhancement of benzodiazepine binding by GABA agonists” value is on record?
Answer: Its value is “blocked”.
